Assay results published in US20220323406A1, “METHODS AND COMPOSITIONS FOR DIFFERENTIATING STEM CELLS” (Massachusetts Institute of Technology, priority 2019, published 2022).

Columns and labels:
[1] = tested on: ENR+CD organoids (ISC to Paneth cell differentiation); test: Primary screen: basal (non-stimulated) lysozyme secretion LYZ.NS, 2.5-D 384-well ENR+CD organoid differentiation; type: cell-based, mouse
Text: (§1) High-throughput screening.

[2] = tested on: ENR+CD organoids (ISC to Paneth cell differentiation); test: Primary screen: CCh-stimulated lysozyme secretion LYZ.S, 2.5-D 384-well ENR+CD organoid differentiation; type: cell-based, mouse; details: primary screen
Text: as §1

[3] = tested on: ENR+CD organoids (ISC to Paneth cell differentiation); test: Secondary (validation) screen: LYZ.NS basal lysozyme secretion, 2.5-D 384-well ENR+CD organoids; type: cell-based, mouse; details: 6-day ENR+CD, vs ENR+CD+DMSO
Method: (§2) Drugs were tested at a narrowed dose range around each treatment's identified optimal dose from the primary screen (4× below, 2× above and below).
as §1
(§3) Secondary lysozyme secretion assay screen. Confirmatory secondary screening with primary hits was performed using the above 384-well plate method. The screen was conducted with 4-plate replicates with a base media of ENR+CD. Media was supplemented with compound at day 0 and day 3 (n=8 well replicates per dose) at four different doses: two-fold above, two-fold below, and four-fold below the optimal final dose for each respective treatment. Additionally, each plate carried a large number of ENR+DMSO or ENR+CD+DMSO (vehicle) control wells (n=100 for ATP, and n=25 for LYZ.NS and LYZ.S) for robust normalization. ATP, non-stimulated lysozyme activity and CCh-stimulated lysozyme activity was again measured and the collected data was again processed in a custom R-script, per primary screen with slight modification. Values were log10 transformed, and a plate-wise FC was calculated for each well based on the median value of ENR+CD+DMSO (vehicle) control wells to normalize plate to plate variability.

[4] = tested on: ENR+CD organoids (ISC to Paneth cell differentiation); test: Secondary (validation) screen: LYZ.S CCh-stimulated lysozyme secretion, 2.5-D 384-well ENR+CD organoids; type: cell-based, mouse; details: 6-day ENR+CD, vs ENR+CD+DMSO
Method: as §2, §1, §3

ENR+CD organoids [5] = test: Secondary (validation) screen: ATP (CTG) assay, 2.5-D 384-well ENR+CD organoids; type: cell-based, mouse; details: 6-day ENR+CD, vs ENR+CD+DMSO
Method: as §2, §1, §3

ENR+CD organoids [6] = test: Primary screen: ATP (CellTiter-Glo 3D, CTG) cell number/viability, 2.5-D 384-well ENR+CD organoids; details: primary screen;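 further: compounds given at plating and again on day 3 over a 6-day differentiation from ENR+CV stem-cell-enriched precursors, ATP measured on day 6, plate median as control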
[7] = dose 0.08 uM, FC relative to plate median
[8] = dose 0.40 uM, FC relative to plate median
[9] = dose 2.00 uM, FC relative to plate median
[10] = dose 10.00 uM, FC relative to plate median

Q: For `COc1ccc(C2CNC(=O)C2)cc1OC1CCCC1` (stereo not drawn) [Rolipram, reference compound], which “primary screen hit call (SSMD and z-scored FC cutoffs in both LYZ assays)” value ([1]; LYZ.NS and LYZ.S; 0.08-10 uM, 6 days ENR+CD) is on record?
A: sole hit in their respective pathway

Q: And the Dose.FC.LYZ.NS ([1]; primary screen, dose 0.08 uM, FC relative to plate median)?
A: 0.406 log2 fold change

Q: What about the Z.LYZ.NS ([1]; primary screen, dose 0.08 uM, standard z score) of the same compound?
A: 3.532

Q: And the Dose.FC.LYZ.NS ([1]; primary screen, dose 0.40 uM, FC relative to plate median)?
A: 0.063 log2 fold change

Q: What about the Z.LYZ.NS ([1]; primary screen, dose 0.40 uM, standard z score) of the same compound?
A: 0.545

Q: And the Dose.FC.LYZ.NS ([1]; primary screen, dose 2.00 uM, FC relative to plate median)?
A: 0.169 log2 fold change

Q: What about the Z.LYZ.NS ([1]; primary screen, dose 2.00 uM, standard z score) of the same compound?
A: 1.470

Q: What about the Dose.FC.LYZ.NS ([1]; primary screen, dose 10.00 uM, FC relative to plate median) of the same compound?
A: 0.112 log2 fold change

Q: And the Z.LYZ.NS ([1]; primary screen, dose 10.00 uM, standard z score)?
A: 0.975

Q: What about the Dose.FC.LYZ.S [2, 7] of the same compound?
A: 0.239 log2 fold change

Q: And the Dose.FC.LYZ.S [2, 8]?
A: 0.156 log2 fold change

Q: What about the Dose.FC.LYZ.S [2, 9] of the same compound?
A: 0.337 log2 fold change

Q: And the Dose.FC.LYZ.S [2, 10]?
A: 0.223 log2 fold change

Q: And the Dose.FC.LYZ.NS ([3]; 0.50 uM)?
A: −0.043 log2 fold change

Q: What about the Dose.FC.LYZ.NS ([3]; 1.00 uM) of the same compound?
A: 0.152 log2 fold change

Q: And the Dose.FC.LYZ.NS ([3]; 2.00 uM)?
A: 0.099 log2 fold change

Q: And the Dose.FC.LYZ.NS ([3]; 4.00 uM)?
A: −0.051 log2 fold change

Q: And the Dose.FC.LYZ.S ([4]; 0.50 uM)?
A: −0.082 log2 fold change

Q: What about the Dose.FC.LYZ.S ([4]; 1.00 uM) of the same compound?
A: 0.104 log2 fold change

Q: And the Dose.FC.LYZ.S ([4]; 2.00 uM)?
A: 0.030 log2 fold change

Q: And the Dose.FC.LYZ.S ([4]; 4.00 uM)?
A: −0.071 log2 fold change

Q: What about the Dose.FC.CTG (ENR+CD organoids [5]; 0.50 uM) of the same compound?
A: 0.053 log2 fold change

Q: What about the Dose.FC.CTG (ENR+CD organoids [5]; 1.00 uM) of the same compound?
A: 0.133 log2 fold change

Q: What about the Dose.FC.CTG (ENR+CD organoids [5]; 2.00 uM) of the same compound?
A: 0.202 log2 fold change

Q: What about the Dose.FC.CTG (ENR+CD organoids [5]; 4.00 uM) of the same compound?
A: 0.065 log2 fold change

Q: What about the Dose.FC.CTG (ENR+CD organoids [6]; [7]) of the same compound?
A: 0.356 log2 fold change

Q: What about the Dose.FC.CTG (ENR+CD organoids [6]; [8]) of the same compound?
A: 0.155 log2 fold change

Q: And the Dose.FC.CTG (ENR+CD organoids [6]; [9])?
A: 0.396 log2 fold change

Q: And the Dose.FC.CTG (ENR+CD organoids [6]; [10])?
A: 0.299 log2 fold change

Q: `CCOc1ccc(Cc2cc([C@@H]3O[C@H](CO)[C@@H](O)[C@H](O)[C@H]3O)ccc2Cl)cc1` [Dapagliflozin, reference compound] was tested. Which Dose.FC.LYZ.NS ([1]; primary screen, dose 0.08 uM) did it give?
A: 0.170 log2 fold change

Q: What about the Dose.FC.LYZ.NS ([1]; primary screen, dose 0.40 uM) of the same compound?
A: 0.097 log2 fold change

Q: And the Dose.FC.LYZ.NS ([1]; primary screen, dose 2.00 uM)?
A: 0.159 log2 fold change

Q: What about the Dose.FC.LYZ.NS ([1]; primary screen, dose 10.00 uM) of the same compound?
A: 0.136 log2 fold change

Q: What about the Z.LYZ.NS ([1]; primary screen, standard z score, dose 0.08 uM) of the same compound?
A: 1.481

Q: And the Z.LYZ.NS ([1]; primary screen, standard z score, dose 0.40 uM)?
A: 0.842

Q: And the Z.LYZ.NS ([1]; primary screen, standard z score, dose 2.00 uM)?
A: 1.386

Q: What about the Z.LYZ.NS ([1]; primary screen, standard z score, dose 10.00 uM) of the same compound?
A: 1.182

Q: What about the Dose.FC.LYZ.S ([2]; dose 0.08 uM) of the same compound?
A: 0.294 log2 fold change

Q: And the Dose.FC.LYZ.S ([2]; dose 0.40 uM)?
A: 0.135 log2 fold change

Q: And the Dose.FC.LYZ.S ([2]; dose 2.00 uM)?
A: 0.166 log2 fold change

Q: And the Dose.FC.LYZ.S ([2]; dose 10.00 uM)?
A: 0.145 log2 fold change

Q: And the Dose.FC.LYZ.NS ([3]; 0.02 uM)?
A: 0.022 log2 fold change

Q: What about the Dose.FC.LYZ.NS ([3]; 0.04 uM) of the same compound?
A: 0.150 log2 fold change

Q: What about the Dose.FC.LYZ.NS ([3]; 0.08 uM) of the same compound?
A: 0.058 log2 fold change

Q: What about the Dose.FC.LYZ.NS ([3]; […]) of the same compound?
A: −0.060 log2 fold change

Q: And the Dose.FC.LYZ.S ([4]; 0.02 uM)?
A: −0.019 log2 fold change

Q: And the Dose.FC.LYZ.S ([4]; 0.04 uM)?
A: 0.069 log2 fold change

Q: And the Dose.FC.LYZ.S ([4]; 0.08 uM)?
A: 0.069 log2 fold change

Q: What about the Dose.FC.LYZ.S ([4]; […]) of the same compound?
A: −0.082 log2 fold change

Q: And the Dose.FC.CTG (ENR+CD organoids [5]; 0.02 uM)?
A: 0.085 log2 fold change

Q: What about the Dose.FC.CTG (ENR+CD organoids [5]; 0.04 uM) of the same compound?
A: 0.174 log2 fold change

Q: And the Dose.FC.CTG (ENR+CD organoids [5]; 0.08 uM)?
A: 0.149 log2 fold change

Q: And the Dose.FC.CTG (ENR+CD organoids [5]; […])?
A: 0.035 log2 fold change

Q: And the Dose.FC.CTG (ENR+CD organoids [6]; dose 0.08 uM)?
A: 0.410 log2 fold change

Q: And the Dose.FC.CTG (ENR+CD organoids [6]; dose 0.40 uM)?
A: 0.254 log2 fold change

Q: What about the Dose.FC.CTG (ENR+CD organoids [6]; dose 2.00 uM) of the same compound?
A: 0.293 log2 fold change

Q: What about the Dose.FC.CTG (ENR+CD organoids [6]; dose 10.00 uM) of the same compound?
A: 0.301 log2 fold change
